In patent publication US20190048016A1, “SUBSTITUTED BRIDGED UREA ANALOGS AS SIRTUIN MODULATORS” (GlaxoSmithKline Intellectual Property(No.2)Limited, priority 2014, published 2019):
Structures can show the parent of a compound that is named as a salt.

Target: T1, SIRT1 (Homo sapiens, UniProt Q96EB6)
T1 sequence (Q96EB6 1-747): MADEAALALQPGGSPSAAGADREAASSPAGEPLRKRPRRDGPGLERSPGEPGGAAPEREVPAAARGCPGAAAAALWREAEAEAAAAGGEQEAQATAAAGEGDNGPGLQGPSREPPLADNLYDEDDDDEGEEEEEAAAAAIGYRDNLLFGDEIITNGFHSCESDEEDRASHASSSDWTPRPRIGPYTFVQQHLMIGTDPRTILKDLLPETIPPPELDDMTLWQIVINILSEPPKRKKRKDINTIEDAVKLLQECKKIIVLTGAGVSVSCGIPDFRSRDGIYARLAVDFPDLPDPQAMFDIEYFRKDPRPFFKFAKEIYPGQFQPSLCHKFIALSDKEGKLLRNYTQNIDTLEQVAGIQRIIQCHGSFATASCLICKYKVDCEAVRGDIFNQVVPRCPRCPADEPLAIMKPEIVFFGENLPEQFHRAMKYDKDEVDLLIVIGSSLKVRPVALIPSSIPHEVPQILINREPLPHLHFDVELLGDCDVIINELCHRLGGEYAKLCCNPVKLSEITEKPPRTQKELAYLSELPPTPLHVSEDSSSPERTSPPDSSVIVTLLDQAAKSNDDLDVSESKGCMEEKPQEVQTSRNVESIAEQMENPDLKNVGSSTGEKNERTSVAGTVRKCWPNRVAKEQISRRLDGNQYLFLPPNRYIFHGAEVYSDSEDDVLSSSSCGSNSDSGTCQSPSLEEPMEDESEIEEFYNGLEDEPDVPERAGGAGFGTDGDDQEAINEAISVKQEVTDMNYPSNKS
Assay: Trp mass spectrometry assay of SIRT1 activation (deacetylation of Ac-R-H-K-K(Ac)-W-NH2 peptide, OAADPR formation)
Format: biochemical
Conditions: Trp peptide 0.5 μM, 120 μM βNAD+, 10 nM SIRT1, 25 min, 25° C.; for Emax: 25 min, read-out: TRP MAX RESP (percent maximum fold activation relative to control = 100%)
Procedure, shortened: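 10 nM His-tagged SIRT1 (E. coli expressed) with 0.5 μM Ac-RHKK(Ac)W-NH2 and 120 μM βNAD+, 25 min at 25° C, HEPES pH 7.5, […]; formic acid stop. OAADPR or deacetylated peptide measured by mass spectrometry; EC1.5 = concentration giving 150% activity versus DMSO control; maximum activation also reported.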

SMILES	Emax [%]	TRP Activity (EC1.5, concentration of compound required to increase SIRT1 activity by 50% over control)	TRP Activity (EC1.5, concentration of compound required to increase SIRT1 activity by 50% over control) (hydrochloride)
O=C(NC1CC1)c1nc2c(cc1Cl)N1CCC[C@@H](C1)N2C(=O)Nc1ccccn1 [Example 33, (9S)-3-chloro-N2-cyclopropyl-N10-(pyridin-2-yl)-8,9-dihydro-6H-5,9-methanopyrido[2,3-b][1,4]diazocine-2,10(7H)-dicarboxamide]	≥ 150	B (EC1.5 1-25 μM)	–
C[C@@H](NC(=O)c1ccc2c(n1)N(C(=O)Nc1cnc(OC[C@H](O)CO)cn1)[C@H]1CCCN2C1)C(F)(F)F [Example 49, (9S)-N10-(5-((R)-2,3-dihydroxypropoxy)pyrazin-2-yl)-N2-((R)-1,1,1-trifluoropropan-2-yl)-8,9-dihydro-6H-5,9-methanopyrido[2,3-b][1,4]diazocine-2,10(7H)-dicarboxamide]	≥ 150	A (EC1.5<1 μM)	–
O=C(Nc1cncc(OCC(O)CO)n1)N1c2nc(-c3cccc(C(F)(F)F)c3)c(Cl)cc2N2CCC[C@H]1C2 (stereo in doubt) [Example 67, (9S)-3-chloro-N-(6-((R)-2,3-dihydroxypropoxy)pyrazin-2-yl)-2-(3-(trifluoromethyl)phenyl)-8,9-dihydro-6H-5,9-methanopyrido[2,3-b][1,4]diazocine-10(7H)-carboxamide]	≥ 150	A (EC1.5<1 μM)	–
O=C(Nc1ccc(F)cn1)N1c2nc(N3CCCC(C(F)(F)F)C3)ccc2N2CCC[C@H]1C2 (single isomer, unassigned) [Example 24]	≥ 150	A (EC1.5<1 μM)	–
O=C(Nc1ccccn1)N1c2nc(N3CCC(C(F)(F)F)C3)ccc2N2CCC[C@H]1C2 (single isomer, unassigned) [Example 31, hydrochloride]	–	–	A (EC1.5<1 μM)

Next, values leading:

Emax [%]	TRP Activity (EC1.5, concentration of compound required to increase SIRT1 activity by 50% over control)	TRP Activity (EC1.5, concentration of compound required to increase SIRT1 activity by 50% over control) (hydrochloride)	SMILES
≥ 150	A (EC1.5<1 μM)	–	Cc1ncc(-c2ccnc(NC(=O)N3c4nc(C(=O)N[C@H](C)C(F)(F)F)ccc4N4CCC[C@H]3C4)c2)s1 [Example 44, (9S)-N10-(4-(2-methylthiazol-5-yl)pyridin-2-yl)-N2-((R)-1,1,1-trifluoropropan-2-yl)-8,9-dihydro-6H-5,9-methanopyrido[2,3-b][1,4]diazocine-2,10(7H)-dicarboxamide]
–	A (EC1.5<1 μM)	–	O=C(NC1CC1(F)F)c1ccc2c(n1)N(C(=O)Nc1cc(OC[C@H](O)CO)ccn1)[C@H]1CCCN2C1 (single isomer, unassigned) [Example 52]
≥ 150	A (EC1.5<1 μM)	–	Cc1cc(-c2ccc3c(n2)N(C(=O)Nc2ccc4nn(C)cc4c2)[C@H]2CCCN3C2)ccn1 [Example 15, (9S)-N-(2-methyl-2H-indazol-5-yl)-2-(2-methylpyridin-4-yl)-8,9-dihydro-6H-5,9-methanopyrido[2,3-b][1,4]diazocine-10(7H)-carboxamide]
≥ 150	A (EC1.5<1 μM)	–	C[C@@H](NC(=O)c1nc2c(cc1Cl)N1CCC[C@@H](C1)N2C(=O)Nc1ccccn1)C(F)(F)F [Example 39, (9S)-3-chloro-N10-(pyridin-2-yl)-N2-((R)-1,1,1-trifluoropropan-2-yl)-8,9-dihydro-6H-5,9-methanopyrido[2,3-b][1,4]diazocine-2,10(7H)-dicarboxamide]
≥ 150	A (EC1.5<1 μM)	–	Cc1cc(-c2ccc3c(n2)N(C(=O)Nc2nc(C)c(C)s2)[C@H]2CCCN3C2)ccn1 [Example 19, (9S)-N-(4,5-dimethylthiazol-2-yl)-2-(2-methylpyridin-4-yl)-8,9-dihydro-6H-5,9-methanopyrido[2,3-b][1,4]diazocine-10(7H)-carboxamide]
